Converted amounts (≈) assume the structure as drawn.
What was measured:
Assay in all cases: in vitro antibacterial evaluation, MIC by broth dilution
Format in all cases: cell-based
Escherichia coli = conditions: 18 hours at 35° C.
Staphylococcus sp. = conditions: broth dilution, 18 hours at 35° C.
Summary of the method: (§1)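 MIC = lowest antibiotic concentration preventing visible growth; inoculum 5×10^5 CFU/mL; drug range 64-0.06 μg/mL; Muller-Hinton II […]; NCCLS M7-A2 guidance.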

Streptococcus sp. = conditions: broth dilution, 18 hours at 35° C.
Summary of the method: as §1

Enterococcus sp. = conditions: broth dilution, 18 hours at 35° C.
Summary of the method: as §1

MIC Escherichia coli (ATCC 25922) (Escherichia coli): >64 µg/mL
MIC Escherichia coli (GC 4559) (Escherichia coli): >64 µg/mL
MIC Escherichia coli (GC 4560) (Escherichia coli): 2 µg/mL (≈ 1.42 µM)
MIC Coagulase Negative Staphylococcus (GC 4547) (Staphylococcus sp.): 8 µg/mL (≈ 5.68 µM)
MIC Coagulase Negative Staphylococcus (GC 4548) (Staphylococcus sp.): 8 µg/mL (≈ 5.68 µM)
MIC Coagulase Negative Staphylococcus (GC 4549) (Staphylococcus sp.): 4 µg/mL (≈ 2.84 µM)
MIC Coagulase Negative Staphylococcus (GC 4551) (Staphylococcus sp.): 16 µg/mL (≈ 11.4 µM)
MIC Coagulase Negative Staphylococcus (ID-3941) (Staphylococcus sp.): 4 µg/mL (≈ 2.84 µM)
MIC Staphylococcus aureus (ATCC 29213) (Staphylococcus sp.): 16 µg/mL (≈ 11.4 µM)
MIC Staphylococcus aureus (GC 1131) (Staphylococcus sp.): 8 µg/mL (≈ 5.68 µM)
MIC Staphylococcus aureus (GC 4541) (Staphylococcus sp.): 8 µg/mL (≈ 5.68 µM)
MIC Staphylococcus aureus (GC 4542) (Staphylococcus sp.): 8 µg/mL (≈ 5.68 µM)
MIC Staphylococcus aureus (GC 4544) (Staphylococcus sp.): 16 µg/mL (≈ 11.4 µM)
MIC Staphylococcus aureus (GC 4545) (Staphylococcus sp.): 8 µg/mL (≈ 5.68 µM)
MIC Staphylococcus aureus-SMITH (GC 4543) (Staphylococcus sp.): 8 µg/mL (≈ 5.68 µM)
MIC Staphylococcus aureus (ATCC 29213) (Staphylococcus sp.; strain ATCC 29213): 16 µg/mL (≈ 11.4 µM)
MIC Staphylococcus aureus (GC 1131) (Staphylococcus sp.; strain GC 1131): 8 µg/mL (≈ 5.68 µM)
MIC Staphylococcus aureus (GC 4541) (Staphylococcus sp.; strain GC 4541): 8 µg/mL (≈ 5.68 µM)
MIC Staphylococcus aureus (GC 4542) (Staphylococcus sp.; strain GC 4542): 8 µg/mL (≈ 5.68 µM)
MIC Staphylococcus aureus-SMITH (GC 4543) (Staphylococcus sp.; strain GC 4543): 8 µg/mL (≈ 5.68 µM)
MIC Staphylococcus aureus (GC 4544) (Staphylococcus sp.; strain GC 4544): 16 µg/mL (≈ 11.4 µM)
MIC Staphylococcus aureus (GC 4545) (Staphylococcus sp.; strain GC 4545): 8 µg/mL (≈ 5.68 µM)
MIC Coagulase Negative Staphylococcus (GC 4547) (Staphylococcus sp.; strain GC 4547): 8 µg/mL (≈ 5.68 µM)
MIC Coagulase Negative Staphylococcus (GC 4548) (Staphylococcus sp.; strain GC 4548): 8 µg/mL (≈ 5.68 µM)
MIC Coagulase Negative Staphylococcus (GC 4549) (Staphylococcus sp.; strain GC 4549): 4 µg/mL (≈ 2.84 µM)
MIC Coagulase Negative Staphylococcus (GC 4551) (Staphylococcus sp.; strain GC 4551): 16 µg/mL (≈ 11.4 µM)
MIC Coagulase Negative Staphylococcus (ID-3941) (Staphylococcus sp.; strain ID-3941): 4 µg/mL (≈ 2.84 µM)
MIC Streptococcus agalactiae (GC 4564) (Streptococcus sp.): 4 µg/mL (≈ 2.84 µM)
MIC Streptococcus pneumoniae (GC 4565) (Streptococcus sp.): 1 µg/mL (≈ 0.71 µM)
MIC Streptococcus pyogenes (ID-3187) (Streptococcus sp.): 2 µg/mL (≈ 1.42 µM)
MIC Streptococcus agalactiae (GC 4564) (Streptococcus sp.; strain GC 4564): 4 µg/mL (≈ 2.84 µM)
MIC Streptococcus pneumoniae (GC 4565) (Streptococcus sp.; strain GC 4565): 1 µg/mL (≈ 0.71 µM)
MIC Streptococcus pyogenes (ID-3187) (Streptococcus sp.; strain ID-3187): 2 µg/mL (≈ 1.42 µM)
MIC Enterococcus avium (GC 4558) (Enterococcus sp.): 64 µg/mL (≈ 45.4 µM)
MIC Enterococcus faecalis (ATCC 29212) (Enterococcus sp.): 64 µg/mL (≈ 45.4 µM)
MIC Enterococcus faecalis (GC 2242) (Enterococcus sp.): 32 µg/mL (≈ 22.7 µM)
MIC Enterococcus faecalis (GC 4552) (Enterococcus sp.): 64 µg/mL (≈ 45.4 µM)
MIC Enterococcus faecalis (GC 4553) (Enterococcus sp.): 64 µg/mL (≈ 45.4 µM)
MIC Enterococcus faecalis (GC 4554) (Enterococcus sp.): 64 µg/mL (≈ 45.4 µM)
MIC Enterococcus faecium (GC 2243) (Enterococcus sp.): 64 µg/mL (≈ 45.4 µM)
MIC Enterococcus faecium (GC 4556) (Enterococcus sp.): 64 µg/mL (≈ 45.4 µM)
MIC Enterococcus faecium (GC 4557) (Enterococcus sp.): 4 µg/mL (≈ 2.84 µM)
MIC Enterococcus faecalis (ATCC 29212) (Enterococcus sp.; strain ATCC 29212): 64 µg/mL (≈ 45.4 µM)
MIC Enterococcus faecalis (GC 2242) (Enterococcus sp.; strain GC 2242): 32 µg/mL (≈ 22.7 µM)
MIC Enterococcus faecium (GC 2243) (Enterococcus sp.; strain GC 2243): 64 µg/mL (≈ 45.4 µM)
MIC Enterococcus faecalis (GC 4552) (Enterococcus sp.; strain GC 4552): 64 µg/mL (≈ 45.4 µM)
MIC Enterococcus faecalis (GC 4553) (Enterococcus sp.; strain GC 4553): 64 µg/mL (≈ 45.4 µM)
MIC Enterococcus faecalis (GC 4554) (Enterococcus sp.; strain GC 4554): 64 µg/mL (≈ 45.4 µM)
MIC Enterococcus faecium (GC 4556) (Enterococcus sp.; strain GC 4556): 64 µg/mL (≈ 45.4 µM)
MIC Enterococcus faecium (GC 4557) (Enterococcus sp.; strain GC 4557): 4 µg/mL (≈ 2.84 µM)
MIC Enterococcus avium (GC 4558) (Enterococcus sp.; strain GC 4558): 64 µg/mL (≈ 45.4 µM)
Compound: CCCCCNC(=O)OCC1OC(OC2C(CO)OC(Oc3ccc(CC4NC(=O)C(C(C)c5ccccc5)NC(=O)CNC(=O)C(CO)NC(=O)C(C(O)C5CNC(=N)N5C5OC(CO)C(O)C(O)C5O)NC(=O)C(C(O)C5CNC(=N)N5)NC4=O)cc3)C(O)C2O)C(O)C(O)C1O (centres unmarked) [Example 251b]
MIC Staphylococcus haemolyticus (GC 4546) (Staphylococcus sp.): 8 µg/mL (≈ 5.68 µM)
MIC Staphylococcus haemolyticus (GC 4546) (Staphylococcus sp.; strain GC 4546): 8 µg/mL (≈ 5.68 µM)

Reference: patent US6914045B2, “Glycopeptide antibiotics” (Wyeth Holdings Corporation, priority 2001, dated 2005)
